“Also recorded” adds a separate entry of the source. Read-outs that look alike come from different tables or passages of the source.
Experiments:
SARS-CoV-2 Wk-521 strain = experiment: SARS-CoV-2 infection assay, viral RNA in culture supernatant (VeroE6/TMPRSS2 cells); type: cell-based
SARS-CoV-2 [1] = experiment: SARS-CoV-2-induced cytopathic effect (CPE) in VeroE6/TMPRSS2 cells; type: cell-based
SARS-CoV-2 [2] = type: cell-based
SARS-CoV-2 [3] = experiment: Time of addition assay, SARS-CoV-2 viral RNA; type: cell-based; conditions: 15 μM RDV, 15 μM CLQ, 10 μM Oxy210, 10 μM Oxy133
[4] = tested on: double-membrane vesicles (DMVs) in SARS-CoV-2-infected cells; experiment: Electron microscopy of double-membrane vesicle (DMV) formation; type: cell-based; conditions: 10 μM Oxy210, Oxy232 (10 μM)
[5] = tested on: HCV NN (genotype-1b) subgenomic replicon; type: cell-based, Hepatitis C virus (HCV); conditions: 10 μM Oxy210; 48 h; LucNeo #2 cells
HDV = type: cell-based, Hepatitis D virus (HDV); conditions: 10 μM Oxy210 for six days; 200 nM MyrB; HepG2-hNTCP-C4 cells
[6] = type: in vivo, mice; conditions: chow diet containing 4 mg Oxy210/g of food; 96 h
[7] = tested on: SARS-CoV-2 (isolate USA WA1/2020); experiment: SARS-CoV-2 infection of Calu-3 cells (dsRNA+ cells, automated microscopy); type: cell-based; conditions: Severe acute respiratory syndrome coronavirus 2, SARS-CoV-2 USA WA1/2020, MOI=0.5, 48 h post-infection, Calu-3
Description: (§1) FIGS. 12A-12C depict dose-response curves for Oxy232. (FIG. 12A) Secreted viral RNA in the VeroE6 culture supernatant 24 h post-inoculation was quantified by real-time RT-PCR. Cell viability of Oxy232 treated cells evaluated with an MTT assay. (FIG. 12B) Secreted viral RNA of 3 SARS-CoV-2 strains in the VeroE6 culture supernatant 24 h post-inoculation was quantified by real-time RT-PCR. (FIG. 12C) Calu-3 (ATCC) cells were pretreated with Oxy232 for 2 hours prior to continuous infection with SARS-CoV-2 (isolate USA WA1/2020) at MOI=0.5. 48 h post-infection, cells were fixed, immune-strained, and imaged by automated microscopy for infection (dsRNA+ cells/total cell number) and cell number.
According to a previously published report (Ohashi et al., Identification of Anti-Severe Acute Respiratory Syndrome-Related Coronavirus 2 (SARS-CoV-2) Oxysterol Derivatives In Vitro. Int J Mol Sci. 2021; 22(6):3163. PMCID: PMC8003796) inventors have tested a collection of naturally occurring and semisynthetic oxysterol derivatives in a SARS-CoV-2 cell culture infection assay in VeroE6/TMPRSS2 cells. […] See, Ohashi et al., Int J Mol Sci. 2021; 22(6):3163 and Dittmar et al. Drug repurposing screens reveal cell-type-specific entry pathways and FDA-approved drugs active against SARS-Cov-2. Cell Rep. […] PMCID: PMC7985926. […] Without wishing to be bound by a theory, biological activities of oxysterols, including measures of cell viability, can heavily depend on in vitro assay conditions, such as the fetal bovine serum concentration or the duration of pretreatment with the compounds, among other factors, that may not translate to the in vivo safety of the compounds.

[8] = tested on: SARS-CoV-2 TY7-501 (Brazil strain); experiment: SARS-CoV-2 TY7-501 strain infection in VeroE6/TMPRSS2 cells; type: cell-based; conditions: viral RNA 24 h post-inoculation
Description: as §1
(§2) According to a previously published report (Ohashi et al., Identification of Anti-Severe Acute Respiratory Syndrome-Related Coronavirus 2 (SARS-CoV-2) Oxysterol Derivatives In Vitro. Int J Mol Sci. 2021; 22(6):3163. PMCID: PMC8003796) inventors have tested a collection of naturally occurring and semisynthetic oxysterol derivatives in a SARS-CoV-2 cell culture infection assay in VeroE6/TMPRSS2 cells. […] See, Ohashi et al., Int J Mol Sci. 2021; 22(6):3163 and Dittmar et al. Drug repurposing screens reveal cell-type-specific entry pathways and FDA-approved drugs active against SARS-Cov-2. Cell Rep. […] PMCID: PMC7985926. […]

[9] = tested on: SARS-CoV-2 TY8-612 (South Africa strain); experiment: SARS-CoV-2 TY8-612 strain infection in VeroE6/TMPRSS2 cells; type: cell-based; conditions: viral RNA 24 h post-inoculation
Description: as §1, §2

[10] = tested on: idiopathic pulmonary fibrosis (IPF); experiment: Mouse model of idiopathic pulmonary fibrosis (IPF); type: in vivo; conditions: Parhami et al., unpublished observations
[11] = In vivo safety and tolerability in mice; conditions: mouse
VeroE6/TMPRSS2 cells = conditions: read-out: CC50 (VeroE6); VeroE6
[12] = single oral dose 200 mg/kg
Calu-3 cells = conditions: at higher concentrations; automated microscopy
TGFβ signaling = conditions: previously reported [16]; fibroblastic cells and tumor cells; cited from earlier work
Hedgehog (Hh) signaling = conditions: previously reported [16]; fibroblastic cells and tumor cells; cited from earlier work
in vivo = conditions: balb/c, mouse, po, 200 mg/kg
in vitro [13] = conditions: African green monkey
in vitro [14] = conditions: human

C[C@]12CC[C@H]3[C@@H](CC=C4C[C@@H](O)CC[C@@]43C)[C@@H]1CC[C@@H]2[C@](C)(O)CCc1cccnc1 [Oxy210, (3S,8S,9S,10R,13S,14S,17S)-17-((R)-2-hydroxy-4-(pyridin-3-yl)butan-2-yl)-10,13-dimethyl-2,3,4,7,8,9,10,11,12,13,14,15,16,17-tetradecahydro-1H-cyclopenta[a]phenanthren-3-ol]
viral RNA in the culture supernatant (SARS-CoV-2 Wk-521 strain; 24 h post-inoculation, natural oxysterols up to 30 μM, semi-synthetic up to 15 μM): reduced viral RNA level in a dose-dependent manner | IC50 (SARS-CoV-2 Wk-521 strain; Severe acute respiratory syndrome coronavirus 2, Vero C1008, SARS-CoV-2, VeroE6, read-out: IC50 (VeroE6)): 5.5 µM | IC90 (SARS-CoV-2 Wk-521 strain; Severe acute respiratory syndrome coronavirus 2, Vero C1008, SARS-CoV-2, VeroE6, read-out: IC90 (VeroE6)): 8.6 µM | IC90 (SARS-CoV-2 Wk-521 strain; Severe acute respiratory syndrome coronavirus 2, VeroE6/TMPRSS2, 24 h, SARS-CoV-2 viral RNA in culture supernatant, 24 h post-inoculation, VeroE6/TMPRSS2 cells, read-out: IC90): 8.6 µM | IC50 (SARS-CoV-2 Wk-521 strain; Severe acute respiratory syndrome coronavirus 2, SARS-CoV-2 viral RNA in culture supernatant, 24 h post-inoculation, VeroE6/TMPRSS2 cells, read-out: IC50): 5.5 µM | reduction of viral RNA production at the maximum (SARS-CoV-2 Wk-521 strain; at 15 μM): 99.4% | anti-SARS-CoV-2 activity (SARS-CoV-2 Wk-521 strain; cell-based assay, VeroE6/TMPRSS2): superior anti-SARS-CoV-2 activity; also recorded: robust anti-SARS-CoV-2 activity | viral RNA levels in the culture supernatant (SARS-CoV-2 Wk-521 strain; oxysterol derivatives at 10 or 30 uM, 24 h post-inoculation, VeroE6/TMPRSS2): strongly reduced viral RNA levels | SARS-CoV-2 propagation in cultured cells (SARS-CoV-2 Wk-521 strain; statement in words): potently inhibits the SARS-CoV-2 propagation | SARS-CoV-2 replication (SARS-CoV-2 Wk-521 strain; statement in words): drastically reduced SARS-CoV-2 replication; also recorded: inhibits the SARS-CoV-2 genome replication; also recorded: potent replication inhibitor | antiviral effect against SARS-CoV-2 (dose response, viral RNA) (SARS-CoV-2 Wk-521 strain; various concentrations, VeroE6/TMPRSS2): highly potent antiviral effect | virus-induced CPE (SARS-CoV-2 [1]; 48 h post-inoculation, 10 μM RDV, 30 μM cholesterol, 30 μM 7-KC, 10 μM Oxy133, 10 μM Oxy210, MOI 0.001): alleviates the virus-induced CPE; also recorded: blocked | SARS-CoV-2-induced cytopathic effect (SARS-CoV-2 [1]; oxy8 7.5 uM, oxy16 20 uM, oxy186 20 uM, oxy210 10 uM, 48 h, VeroE6/TMPRSS2): protected cells from cytopathic effect | SARS-CoV-2 propagation / spread of infection (viral N protein, immunofluorescence) (SARS-CoV-2 [2]): blocked | viral RNA, compound present during the whole life cycle (SARS-CoV-2 [3]; 24 h): clearly reduced viral RNA levels | viral RNA, compound present post-entry (SARS-CoV-2 [3]; added 2 h post-inoculation for 21 h): clearly reduced viral RNA levels; also recorded: predominantly inhibits the post-entry process | DMV formation in SARS-CoV-2-infected cells [4]: disrupting the formation of double-membrane vesicles; also recorded: reduced viral replication and the formation of double-membrane vesicles; also recorded: remarkably reduced the DMV formation; also recorded: reduced the formation of DMVs; also recorded: substantially reduced; also recorded: inhibit DMV formation | HCV replication (luciferase activity) [5]: reduced the DMV-dependent RNA replication of HCV; also recorded: Antiviral effects of Oxy210 were also observed during the replication of HCV | HDV replication / infection (HDV RNA, real-time RT-PCR) (HDV): antiviral activity was not observed in HDV infection | adverse effects / body weight [6]: No adverse effects or significant loss of body weight | IC50 ([7]; read-out: IC50 (Calu-3)): 1.5 µM | IC90 ([7]; read-out: IC90 (Calu-3)): 4.24 µM | activity against the TY7-501 strain [8]: undiminished activity | activity against the TY8-612 strain [9]: undiminished activity | effects in a mouse model of idiopathic pulmonary fibrosis (IPF) [10]: protective effects | in vivo safety and tolerability in mice [11]: excellent in vivo safety and tolerability | CC50 (VeroE6/TMPRSS2 cells): > 15 µM | Tmax ([12]; plasma): 1 h | Cmax ([12]; read-out: peak plasma concentration (Cmax), 200 mg/kg): 19.4 µM | peak plasma concentration (Cmax) [12]: 8,155 ng/mL | tolerability [12]: well tolerated | cell viability in Calu-3 cells (Calu-3 cells): do affect cell viability | TGFβ signaling (TGFβ signaling): inhibited | Hedgehog (Hh) signaling (Hedgehog (Hh) signaling): inhibited | AUC (in vivo): 29300 ng·h/mL | Cmax (in vivo): 19 µM | CC50 (in vitro [13]): > 15 µM | CC50 (in vitro [14]): 8.3 µM
